What was measured:
[1] = Cmax in CD rat at […], po by LC-MS analysis; format: ADME, organism-based; design: dose 2.5 mg/kg, route oral; details: in vivo
[2] = AUC (0 to last) in CD rat at […], po by LC-MS analysis; format: ADME, organism-based; design: dose 2.5 mg/kg, route oral, time 0 - last; details: in vivo
[3] = Apparent permeability of the compound from apical to basolateral side in human Caco2 cells; format: ADME, cell-based; details: Caco-2

| Compound | Cmax [1] | AUC(0-t) [2] | Papp A→B [3] |
| --- | --- | --- | --- |
| CC(=O)Nc1cn2cc(-c3cnc(N)c(OCC(F)(F)F)n3)ccc2n1 | 1.5 µM | 4 µM·h |  |
| CC(=O)Nc1cn2cc(-c3cnc(N)c(OC(C)C(F)(F)F)n3)ccc2n1 (racemic) | 3 µM | 49 µM·h | 410 nm/s |
| CC(=O)Nc1cn2cc(-c3cnc(N)c(OC(C)C)n3)ccc2n1 | 1.3 µM | 13 µM·h |  |
| COCCOc1nc(-c2ccc3nc(NC(C)=O)cn3c2)cnc1N | 4 µM | 14 µM·h |  |

More lines, now with the values ahead:

| Cmax [1] | AUC(0-t) [2] | Papp A→B [3] | Compound |
| --- | --- | --- | --- |
| 8.9 µM | 15 µM·h |  | COc1nc(-c2ccc3nc(NC(C)=O)cn3c2)cnc1N |
| 3.6 µM | 7 µM·h |  | CCOc1nc(-c2ccc3nc(NC(C)=O)cn3c2)cnc1N |
